Assays:
5-HT2c receptors = target: T1, 5-HT2c receptors (Rattus norvegicus, UniProt P08909); assay: Penile erection test in the rat (erections caused by RO 60-0175); format: in vivo; conditions: sc, male Wistar rats, s.c., compound 30 min before RO 60-0175 (1.25 mg/kg s.c.), erections counted over 30 min, read-out: inhibitory dose 50 (ID50), inhibition of penile erections caused by RO 60-0175
T1 construct: from tissue; host or cells: whole animal (male Wistar rat, in vivo)
T1 sequence (P08909 33-460): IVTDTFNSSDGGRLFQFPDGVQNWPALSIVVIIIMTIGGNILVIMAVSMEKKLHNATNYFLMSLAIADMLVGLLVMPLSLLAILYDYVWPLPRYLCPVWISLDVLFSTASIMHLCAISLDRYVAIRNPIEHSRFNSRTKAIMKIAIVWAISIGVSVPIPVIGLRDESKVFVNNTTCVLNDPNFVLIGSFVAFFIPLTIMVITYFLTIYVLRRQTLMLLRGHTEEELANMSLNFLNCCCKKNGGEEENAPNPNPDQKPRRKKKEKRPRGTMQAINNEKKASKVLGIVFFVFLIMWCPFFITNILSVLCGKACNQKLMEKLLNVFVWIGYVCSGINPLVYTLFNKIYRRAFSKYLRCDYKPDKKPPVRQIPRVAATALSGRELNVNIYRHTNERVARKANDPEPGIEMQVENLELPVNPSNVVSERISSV
Procedure: This test allows evaluation of the capacity of pharmacological agents to inhibit penile erections caused by administration of a selective 5-HT2c agonist, RO 60-0175.
Male rats of the Wistar strain weighing 120-140 g on the day of the experiment are placed separately in plexiglass observation boxes immediately after the compound under test or the vehicle has been administered. Thirty minutes later, RO 60-0175 (1.25 mg/kg, subcutaneous) is administered to the animals and the number of erections occurring during the next 30 minutes is counted.

male CD-1 mice = assay: Test for aggressiveness caused by isolation, in the mouse; format: in vivo; conditions: isolated male CD-1 mice, i.p., 30 min before test, measured over three minutes
Procedure: The animals used are male CD-1 mice. From the time of their arrival, the mice are isolated in individual cages, with free access to food and drink. After a period of one month of isolation, pairs of mice that are stable in terms of aggressiveness are selected by observing the latency period and the number and the duration of attacks when the mice are placed in the presence of one another.
The test is conducted once per week. On the day of the test, each mouse of the pair (resident and intruder) is given an intraperitoneal injection of the vehicle (control animals) or of the compound under test (treated animals) in a volume of 10 ml/kg. After 30 minutes, the intruder mouse is introduced into the cage of the resident mouse. The latency period until the first attack and the number and the duration of attacks are then measured over a period of three minutes.
A compound is considered to be specifically anti-aggressive when it reduces the number and the duration of attacks at non-sedative doses.

α2-adrenergic receptors = assay: Affinity for α2-adrenergic receptors, competition with [3H]-RX 821,002; format: binding; conditions: rat cerebral cortex membranes, 0.4 nM [3H]-RX 821,002, 60 minutes at 22° C.
Procedure: The affinity was determined by competition experiments with [^3H]-RX 821,002. The membranes are prepared from the cerebral cortex of the rat and are incubated in triplicate with 0.4 nM [^3H]-RX 821,002 and the compound being tested in a final volume of 1.0 ml, for 60 minutes at 22° C. The incubation buffer contains […] TRIS-HCl (pH 7.5), 1 mM EDTA and 100 μM GppNHp. The non-specific binding is determined using 10 μM phentolamine.
Data Analysis: At the end of the incubation, the incubation medium is filtered through WHATMAN GF/B filters impregnated with 0.1% of polyethylenimine and washed three times with 5 ml of cooled buffer. The radioactivity retained on the filters is determined by liquid scintillation counting. The binding isotherms are analysed by non-linear regression.

[1] = test system: male mice of the NMRI strain; assay: Marble-burying test in the mouse; format: in vivo; conditions: s.c., 30 minutes' exploration, 24 marbles
Source text: This test allows evaluation of the capacity of pharmacological agents to inhibit spontaneous marble-burying behaviour in the mouse, the inhibition being predictive of antidepressant and/or anti-impulsive action.
Male mice of the NMRI strain weighing from 20 to 25 g on the day of the experiment are placed individually in Macrolon boxes containing 5 cm of sawdust and covered with a perforated plexiglass plate. Twenty-four “tiger's eye” glass marbles are evenly distributed on the sawdust at the periphery of the box. At the end of 30 minutes' free exploration, the animals are removed from the box and the number of buried marbles is counted.

## Cc1nc2ccccn2c(=O)c1CCN1CC2COc3ccc4ccccc4c3C2C1.O=C(O)/C=C/C(=O)O (stereo not shown) [Example 3, 3-[2-(1,3a,4,11c-Tetrahydrobenzo[5,6]chromeno[3,4-c]pyrrol-2(3H)-yl)-ethyl]-2-methyl-4H-pyrido[1,2-a]pyrimidin-4-one Fumarate]
5-HT2c receptors
  ED50: 2.6 mg/kg
Male CD-1 mice
  inhibitory dose 50 (ID50), number and duration of attacks: 7 mg/kg
α2-adrenergic receptors
  pKi: 7.5
[1]
  inhibitory dose 50 (ID50), spontaneous marble-burying behaviour: 4.1 mg/kg

Source: patent US6747032B2, “Pyrimidin-4-one compounds” (Les Laboratoires Servier, priority 2001, dated 2004)
